Data on one molecule can be found in patent publication US20200164023A1, “METHODS FOR PREVENTING AND TREATING INTRA-ABDOMINAL CANDIDIASIS” (Cidara Therapeutics, Inc., priority 2017, published 2020).

Values after ≈ are worked out from the molar mass of the structure shown. Numbered stars: 1 amine (or outer) side, 2 acyl side, 3 side chain; on linkers, the order of the positions; unused ones are H or OH. Bridge positions count the residues as written; N and C are the ends. Square brackets hold non-standard residues; d marks the D form. Peptide text beside a SMILES is read from it. * marks the point of attachment. hTyr(3S-OH,4S-OH,3'-OSO3H) = N[C@H](C(=O)O)[C@H](O)[C@@H](O)c1ccc(O)c(OS(=O)(=O)O)c1; Orn(4R-OH,5R-OH) = O=C([C@H](C[C@@H](O)[C@@H](O)N[*:3])N[*:1])[*:2]; Pro(3S-OH,4S-Me) = C[C@H]1CN[C@H](C(=O)O)[C@H]1O; X1 = CCCCCOc1ccc(-c2cc(-c3ccc(C(=O)*)cc3)no2)cc1; Gln(3R-OH) = NC(=O)C[C@@H](O)[C@H](N)C(=O)O; Hyp = O=C(O)[C@@H]1C[C@@H](O)CN1

One data set has as its system C. albicans. The data set is described as follows: Minimum inhibitory concentration (MIC), IAC study strain. It counts as cell-based. The following applies: Candida albicans. The method, then: As used herein, the term “minimum inhibitory concentration” or “MIC” refers to the concentration of an antifungal agent at which 50% to 100% growth inhibition of a fungus is achieved relative to a positive growth control. The method of establishing MIC will vary depending on the specific compound tested. For example, for echinocandins (e.g., CD101), MIC endpoints are determined after 24 hours incubation and correspond with the lowest drug concentration to produce a prominent decrease in turbidity (e.g., an approximately 50% reduction in growth relative to the drug-free growth control). For additional methods of determining the MIC of antifungal agents, see CLSI—Reference method for broth dilution antifungal susceptibility testing of yeasts; Approved-standard—Third Edition. CLSI document M27-A3. Wayne, Pa.: Clinical and Laboratory Standards Institute, 2008.

The subject of data set [1] is wildtype strains of C. albicans. To be noted: cited from earlier work.
A further data set relates to C. glabrata BG2. The data set is described as follows: MIC against C. glabrata BG2. The following applies: Nakaseomyces glabratus; C. glabrata BG2, wild-type FKS genes. It is filed as cell-based.
A short description of data set [2]: Serum drug levels after single dose in mice. It counts as in vivo. To be noted: mouse, single dose 5 mg/kg, read-out: serum drug level.
In data set [3] the test system is wildtype strains of C. glabrata. The following applies: cited from earlier work.
In another data set the test system is C. glabrata isolates. The data set is described as follows: Susceptibility profiles of C. glabrata clinical isolates. It counts as cell-based. The text has this: 168 C. glabrata isolates are collected from blood or other sterile sites in our repository. 11 clinical isolates are selected that display various susceptibility profiles against anidulafungin, caspofungin, and micafungin, and/or harbor mutant or wild-type FKS genes (Table 1). Additionally, 29 isolates are picked that are susceptible to all three echinocandins and harbor wild-type FKS genes. These 40 clinical isolates undergo CD101 susceptibility testing according to the CLSI broth microdilution reference methods. Stock solutions are prepared in DMSO. […] MICs are determined visually after 24-h of incubation. C. krusei ATCC 6258 and C. parapsilosis ATCC 22019 are included for quality controls.

Data set [4] is described as follows: MALDI-MSI drug distribution in infected liver, mouse model of intra-abdominal candidiasis. It counts as in vivo. The following applies: single dose 5 mg/kg. The method, then:
A mouse model of IAC was used for this study. Female six to eight week old CD1 mice (Charles River Laboratories) weighing 18-22 g were infected intraperitoneally (IP) with 1×10^7 CFU of C. albicans SC5314 mixed with sterile stool matrix as previously described. […] Mice were sacrificed just before antifungal treatment (n=1), and at 1, 3, 6, 24, and 48 hours post-dose (three mice per group per time point). Livers and kidneys were explored for abscesses >1 mm in diameter, dissected, placed on a cryohistology tray, and snap-frozen in liquid nitrogen and stored at −80° C. for tissue sectioning for MALDI imaging.
In a further experiment, a low dose of CD101 at 5 mg/kg was administered and micafungin was given at the same dose. Liver and kidney samples were collected at 6 hours and 24 hours post-dose for both MALDI imaging and absolute drug quantification.
In another separate experiment that aimed at comparing therapeutic level of single dose CD101 and multiple doses of micafungin, a single dose of CD101 at 20 mg/kg was given at day three post-inoculation, and once daily treatment of micafungin at 5 mg/kg starting from day three post-inoculation and a total of three doses of micafungin was administered. Livers and kidneys were collected at 48 hours and 72 hours post first dose of each drug.
Tissues were sectioned at 12 μm thickness using a Leica CM1850 cryostat (Buffalo Grove, Ill.) and mounted onto stainless steel slides (for MALDI-MSI analysis) or frosted glass microscope slides (for H&E staining). Tissue sections were stored at −80° C. until analysis. Prior to MALDI-MSI analysis, tissue sections were thawed and applied with ionization matrix. For CD101, 2,5-dihydroxybenzoic acid (DHB) (20 mg/ml in 50% methanol) containing 267 fmol/μl CD101-D9 (Cidara Therapeutics, Inc) was applied to the surface using a HTX TM sprayer (Chapel Hill, N.C.) operating with 50 μL/min flow rate, 60° C. nozzle temperature and 5 p.s.i. Twenty-five passes over the tissue were performed. For micafungin, 1,5-diaminonaphthalene (1,5-DAN) matrix (5 mg/ml in 50% acetone) containing 5 nmol/μl ^13C6-micafungin (Alsachim, France) was coated onto tissue surface by the TM-sprayer at flow rate of 60 μl/min, 50° C. nozzle temperature and 5 p.s.i. […]
MALDI-MSI analysis was performed using a MALDI LTQ Orbitrap XL mass spectrometer (Thermo Fisher Scientific, Bremen, Germany) with a resolution of 60,000 at m/z 400, full width at half maximum. […] Standards of CD101 and micafungin were analyzed both direct from the stainless steel target plate and spiked into drug-naïve liver tissue to optimize instrument parameters. Limit of detection (LOD) for MALDI-MSI analysis of micafungin and CD101 was 500 ng/g and 1 μg/g of liver or kidney tissue respectively, calculated as described. […]

In the case of `CCCCCOc1ccc(-c2cc(-c3ccc(C(=O)N[C@H]4C[C@@H](O)[C@@H](O)NC(=O)[C@@H]5[C@@H](O)[C@@H](C)CN5C(=O)[C@H]([C@H](O)CC(N)=O)NC(=O)[C@H]([C@H](O)[C@@H](O)c5ccc(O)c(OS(=O)(=O)O)c5)NC(=O)[C@@H]5C[C@@H](O)CN5C(=O)[C@H]([C@@H](C)O)NC4=O)cc3)no2)cc1` [micafungin] (X1-[Orn(4R-OH,5R-OH)]T[Hyp][hTyr(3S-OH,4S-OH,3'-OSO3H)][Gln(3R-OH)][Pro(3S-OH,4S-Me)]; lactam 1-C), the MIC in the data set on C. albicans came to 0.03 µg/mL (≈ 0.0236 µM); with C. glabrata BG2, 0.06 µg/mL (≈ 0.0472 µM). The “mutant prevention concentration (MPC)” value in data set [1] and in data set [3] was 16 µg/mL in each case. In data set [2] (6 hours), the concentration at 6 h is 7000 to 10000 ng/mL. Further, the concentration at 24 h in data set [2] (24 hours) is roughly 2000 ng/mL. In addition, the “susceptibility profile, value” turned out to be 0.015 with C. glabrata isolates (Isolate 1, FKS R653I); 0.03 in the data set with C. glabrata isolates (Isolate 2, FKS Wild-type); 0.06 in the data set with C. glabrata isolates (Isolate 3, FKS F659L); 0.06 in the data set with C. glabrata isolates (Isolate 4, FKS F659S); 0.12 in the data set on C. glabrata isolates (Isolate 5, FKS R636S); 4 in the data set with C. glabrata isolates (Isolate 6, FKS F659del). The “susceptibility profile, value” with C. glabrata isolates (Isolate 7, FKS S663P) is reported as 8; in the data set with C. glabrata isolates (Isolate 8, FKS S663P), 0.5; with C. glabrata isolates (Isolate 9, FKS D632Y) it was 0.25; with C. glabrata isolates (Isolate 10, FKS D632Y) it was 0.25; with C. glabrata isolates (Isolate 11, FKS F659del), 4. Moreover, the “time of peak drug intensity in liver tissues (MALDI-MSI)” value in data set [4] came to 1 h. Moreover, the “drug signal in liver at 48 hours (MALDI-MSI)” value in data set [4] (no further dosing) was “no drug signals were detected”. Besides, the “drug exposure within necrotic center of lesion (MALDI-MSI)” value in data set [4] (24 hours) is listed as “no detectable drug exposure”. The “time at which drug signal first detectable in lesions (at lesion edge, MALDI-MSI)” value in data set [4] (liver) came out at 6 h.

Broadly, the MIC is the least concentration at which growth counts as inhibited. Lower therefore signals greater potency.
